How the values were obtained:
[1] = biological target: Carbonic anhydrase 5A, mitochondrial (Homo sapiens, UniProt P35218); assay: Inhibition of human CA5A by stopped-flow CO2 hydrase assay
Carbonic anhydrase 13 = Carbonic anhydrase 13 (Homo sapiens, UniProt Q8N1Q1); assay: Inhibition of human CA13 by stopped-flow CO2 hydrase assay
Carbonic anhydrase 4 = Carbonic anhydrase 4 (Homo sapiens, UniProt P22748); assay: Inhibition of human CA4 by stopped-flow CO2 hydrase assay
Carbonic anhydrase 6 = Carbonic anhydrase 6 (Homo sapiens, UniProt P23280)
Description: Inhibition of human CA6 by stopped-flow CO2 hydrase assay

Carbonic anhydrase 12 = Carbonic anhydrase 12 (Homo sapiens, UniProt O43570)
Description: Inhibition of human CA12 by stopped-flow CO2 hydrase assay

Carbonic anhydrase 3 = Carbonic anhydrase 3 (Homo sapiens, UniProt P07451)
Description: Inhibition of human CA3 by stopped-flow CO2 hydrase assay

Carbonic anhydrase 7 = Carbonic anhydrase 7 (Homo sapiens, UniProt P43166)
Description: Inhibition of human CA7 by stopped-flow CO2 hydrase assay

Carbonic anhydrase 14 = Carbonic anhydrase 14 (Homo sapiens, UniProt Q9ULX7); assay: Inhibition of human CA14 by stopped-flow CO2 hydrase assay
Carbonic anhydrase 9 = Carbonic anhydrase 9 (Homo sapiens, UniProt Q16790)
Description: Inhibition of human CA9 by stopped-flow CO2 hydrase assay

[2] = biological target: Carbonic anhydrase 5B, mitochondrial (Homo sapiens, UniProt Q9Y2D0); assay: Inhibition of human CA5B by stopped-flow CO2 hydrase assay
Carbonic anhydrase 15 = biological target: T1, Carbonic anhydrase 15 (Mus musculus, UniProt Q99N23)
T1 sequence (Q99N23 whole entry): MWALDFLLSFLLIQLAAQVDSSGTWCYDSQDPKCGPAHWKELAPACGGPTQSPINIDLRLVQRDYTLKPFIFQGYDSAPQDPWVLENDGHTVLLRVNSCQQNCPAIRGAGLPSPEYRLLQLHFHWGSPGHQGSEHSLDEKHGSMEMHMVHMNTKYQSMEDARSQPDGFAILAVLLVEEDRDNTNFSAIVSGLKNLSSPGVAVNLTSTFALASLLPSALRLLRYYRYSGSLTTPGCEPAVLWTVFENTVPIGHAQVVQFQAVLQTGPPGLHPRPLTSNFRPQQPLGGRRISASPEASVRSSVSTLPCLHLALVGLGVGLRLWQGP
Description: Inhibition of mouse CA15 by stopped-flow CO2 hydrase assay

Carbonic anhydrase 2 = Carbonic anhydrase 2 (Homo sapiens, UniProt P00918)
Description: Inhibition of human CA2 by stopped-flow CO2 hydrase assay

Carbonic anhydrase 1 = Carbonic anhydrase 1 (Homo sapiens, UniProt P00915)
Carbonic anhydrase 1, sequence (P00915 whole entry): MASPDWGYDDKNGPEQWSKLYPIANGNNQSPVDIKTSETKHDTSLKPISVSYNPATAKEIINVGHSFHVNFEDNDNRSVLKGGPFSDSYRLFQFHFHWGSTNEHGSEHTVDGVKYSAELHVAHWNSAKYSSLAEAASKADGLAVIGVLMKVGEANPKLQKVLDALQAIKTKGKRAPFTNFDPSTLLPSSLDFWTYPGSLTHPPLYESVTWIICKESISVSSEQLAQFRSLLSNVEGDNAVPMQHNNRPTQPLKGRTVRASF
Description: Inhibition of human CA1 by stopped-flow CO2 hydrase assay

Carbonic anhydrase 12, sequence (O43570 whole entry): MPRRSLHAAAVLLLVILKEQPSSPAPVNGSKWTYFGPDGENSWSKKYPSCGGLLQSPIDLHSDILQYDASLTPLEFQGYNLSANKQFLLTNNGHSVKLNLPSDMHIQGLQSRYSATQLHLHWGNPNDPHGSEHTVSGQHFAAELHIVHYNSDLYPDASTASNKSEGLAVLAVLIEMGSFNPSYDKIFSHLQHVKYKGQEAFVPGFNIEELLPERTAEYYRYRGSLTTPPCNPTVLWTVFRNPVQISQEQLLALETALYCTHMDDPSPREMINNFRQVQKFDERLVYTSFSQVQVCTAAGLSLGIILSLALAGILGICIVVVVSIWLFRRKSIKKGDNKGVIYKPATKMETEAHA
Carbonic anhydrase 5A, mitochondrial, sequence (P35218 whole entry): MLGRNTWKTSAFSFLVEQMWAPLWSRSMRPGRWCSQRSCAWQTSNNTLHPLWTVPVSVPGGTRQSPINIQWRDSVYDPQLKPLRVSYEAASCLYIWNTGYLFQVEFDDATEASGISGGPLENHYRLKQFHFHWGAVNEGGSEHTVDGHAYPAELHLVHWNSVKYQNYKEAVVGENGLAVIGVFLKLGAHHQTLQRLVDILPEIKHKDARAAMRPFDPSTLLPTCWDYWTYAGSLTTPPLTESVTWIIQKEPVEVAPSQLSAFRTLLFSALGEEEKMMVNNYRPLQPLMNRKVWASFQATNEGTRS
Carbonic anhydrase 13, sequence (Q8N1Q1 whole entry): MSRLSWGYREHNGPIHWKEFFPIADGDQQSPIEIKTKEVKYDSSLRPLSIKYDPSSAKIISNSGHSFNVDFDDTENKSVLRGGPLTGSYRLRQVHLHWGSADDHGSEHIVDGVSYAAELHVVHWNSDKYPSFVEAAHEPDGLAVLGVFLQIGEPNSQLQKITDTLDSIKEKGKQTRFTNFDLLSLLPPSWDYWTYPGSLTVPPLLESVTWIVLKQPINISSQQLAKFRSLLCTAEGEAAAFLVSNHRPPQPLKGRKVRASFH
Carbonic anhydrase 14, sequence (Q9ULX7 whole entry): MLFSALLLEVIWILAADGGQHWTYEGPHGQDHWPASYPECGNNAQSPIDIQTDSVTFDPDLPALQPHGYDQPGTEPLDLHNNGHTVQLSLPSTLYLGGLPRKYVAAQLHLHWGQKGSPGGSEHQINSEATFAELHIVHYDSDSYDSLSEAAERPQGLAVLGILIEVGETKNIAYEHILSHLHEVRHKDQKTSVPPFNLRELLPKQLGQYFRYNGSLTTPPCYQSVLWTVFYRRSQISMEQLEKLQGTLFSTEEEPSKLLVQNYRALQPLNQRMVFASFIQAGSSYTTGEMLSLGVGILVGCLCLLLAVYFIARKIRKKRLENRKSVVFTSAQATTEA
Carbonic anhydrase 3, sequence (P07451 whole entry): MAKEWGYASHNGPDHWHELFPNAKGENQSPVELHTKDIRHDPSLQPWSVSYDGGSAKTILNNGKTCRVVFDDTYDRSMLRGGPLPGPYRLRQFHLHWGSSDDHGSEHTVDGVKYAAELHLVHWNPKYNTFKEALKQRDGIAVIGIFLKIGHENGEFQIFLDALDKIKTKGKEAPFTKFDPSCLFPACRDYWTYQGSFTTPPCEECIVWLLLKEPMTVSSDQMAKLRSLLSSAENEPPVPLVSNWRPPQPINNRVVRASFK
Carbonic anhydrase 5B, mitochondrial, sequence (Q9Y2D0 whole entry): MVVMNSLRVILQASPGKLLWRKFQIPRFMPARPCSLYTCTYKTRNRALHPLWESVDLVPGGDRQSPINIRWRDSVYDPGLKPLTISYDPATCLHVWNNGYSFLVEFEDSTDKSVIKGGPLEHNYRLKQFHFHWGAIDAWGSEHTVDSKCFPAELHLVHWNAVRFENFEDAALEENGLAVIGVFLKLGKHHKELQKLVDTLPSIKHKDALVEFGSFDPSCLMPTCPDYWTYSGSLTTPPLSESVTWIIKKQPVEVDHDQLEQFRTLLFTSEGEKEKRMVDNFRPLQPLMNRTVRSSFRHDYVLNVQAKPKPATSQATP
Carbonic anhydrase 6, sequence (P23280 whole entry): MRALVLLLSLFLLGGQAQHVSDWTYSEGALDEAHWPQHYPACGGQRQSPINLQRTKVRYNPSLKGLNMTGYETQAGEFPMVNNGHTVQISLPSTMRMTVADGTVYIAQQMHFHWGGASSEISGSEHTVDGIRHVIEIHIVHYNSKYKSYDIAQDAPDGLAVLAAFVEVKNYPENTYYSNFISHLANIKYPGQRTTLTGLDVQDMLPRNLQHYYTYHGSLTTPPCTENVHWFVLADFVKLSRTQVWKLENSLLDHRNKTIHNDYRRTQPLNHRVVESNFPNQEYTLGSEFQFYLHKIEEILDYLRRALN
Carbonic anhydrase 4, sequence (P22748 whole entry): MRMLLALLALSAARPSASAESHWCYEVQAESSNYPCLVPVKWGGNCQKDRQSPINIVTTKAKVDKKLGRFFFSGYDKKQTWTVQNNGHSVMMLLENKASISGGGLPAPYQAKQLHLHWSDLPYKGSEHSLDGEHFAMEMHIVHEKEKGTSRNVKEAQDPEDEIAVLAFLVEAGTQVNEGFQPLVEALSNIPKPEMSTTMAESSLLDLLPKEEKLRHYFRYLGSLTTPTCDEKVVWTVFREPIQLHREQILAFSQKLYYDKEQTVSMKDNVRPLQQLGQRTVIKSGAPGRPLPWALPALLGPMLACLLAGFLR
Carbonic anhydrase 7, sequence (P43166 whole entry): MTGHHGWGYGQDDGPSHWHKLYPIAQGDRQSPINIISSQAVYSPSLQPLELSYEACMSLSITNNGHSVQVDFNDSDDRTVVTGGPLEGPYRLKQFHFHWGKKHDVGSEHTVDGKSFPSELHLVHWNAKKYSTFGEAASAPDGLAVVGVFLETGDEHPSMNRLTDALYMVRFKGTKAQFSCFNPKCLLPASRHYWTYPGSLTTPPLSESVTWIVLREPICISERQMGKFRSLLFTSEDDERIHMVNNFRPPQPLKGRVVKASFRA

Ki [1] [µM] | Ki (Carbonic anhydrase 13) [µM] | Ki (Carbonic anhydrase 4) [µM] | Ki (Carbonic anhydrase 6) [µM] | Ki (Carbonic anhydrase 12) [µM] | Ki (Carbonic anhydrase 3) [µM] | Ki (Carbonic anhydrase 7) [µM] | Ki (Carbonic anhydrase 14) [µM] | Ki (Carbonic anhydrase 9) [µM] | Ki [2] [µM] | Ki (Carbonic anhydrase 15) [µM] | Ki (Carbonic anhydrase 2) [µM] | Ki (Carbonic anhydrase 1) [µM] | SMILES
6.92 | 8.45 | 6.51 | 4.38 | 5.87 | 4.57 | 6.94 | 3.28 | 3.38 | 6.83 | 2.68 | – | – | CC(C)C[C@H](NC(=O)[C@H](Cc1ccccc1)NC(=O)c1cnccn1)B(O)O [BORTEZOMIB]
> 50 | > 50 | – | > 50 | > 50 | > 50 | – | > 50 | > 50 | > 50 | – | > 50 | > 50 | OB(O)c1ccccc1 [PHENYLBORONIC ACID]
– | – | – | – | > 50 | – | – | – | > 50 | – | – | 8.18 | 5.69 | OB1OCc2ccccc21 [BENZOXABOROLE]
